Experiments:
[1] = tested on: Human Anti-Pig Kidney antibodies; assay: ELISA: human antibodies eluted from pig kidney binding to carbohydrate-BSA antigens; conditions: BSA well O.D. subtracted
Procedure: (§1) Organs from two populations of pigs were used to purify human anti-pig antibodies. The pig strains were Poland China and Yorkshire. Antibody preparations were obtained by perfusing 100-200 ml of human plasma (O or AB) through pig hearts, pig kidneys or through a column containing solid support coated with pig red cell stroma. After washing the tissues thoroughly with 0.15 M NaCl, the retained antibodies were eluted from the tissue or column using 200 ml of 3M NaSCN. The antibodies were concentrated, and then the protein content determined. Carbohydrate antigens were made by covalent binding of the synthetic oligosaccharides with an aliphatic linking arm (CH2)8COOCH3 to BSA as described by Pinto and Bundle (1983)^19 and/or Lemieux, Bundle, Baker (U.S. Pat. No. 4,137,401)^13 (ten to twenty haptens per molecule of BSA). Example 5, infra, describes this procedure as applied to carbohydrate 2 of FIG. 1A. Structures and trivial names of some of the monosaccharides and oligosaccharides used are included in FIGS. 1A to 1H. The use of synthetic carbohydrate structures to detect antibody binding has been previously described in U.S. Pat. No. 4,137,401^13. The technology used for the ELISA assay for detecting anti-carbohydrate antibodies is a combination of the work from numerous groups. Wells in 96 microtitration plates (Flow Laboratories, Inc., McLean Va., U.S.A.) were coated by incubation at room temperature for 16 hours with 2 μg of BSA-glycoconjugates or BSA per well (20 μg BSA-conjugate/ml diluted in PBS). The coating solutions were removed and 200 μl/well of PBS containing 5% BSA was added. After a 4 hours incubation (22° C.), the wells were washed twice with PBS, then once with H2O. The plates were inverted, allowed to dry, and stored at room temperature. Immediately before testing, 200 μl of PBS containing 1% BSA (1% BSA/PBS) was added to each of the wells and left to stand for 10 to 20 minutes at ambient temperature. The human anti-pig preparations were diluted to between 15 to 70 μg of eluted protein per ml of 1% BSA/PBS. The BSA/PBS was removed and 100 μl of diluted anti-pig preparation was added to the appropriate wells, then incubated at 4° C. for 16 hours. The antibody preparations were removed and the wells were washed 4 times with PBS (200 μl/wash). Alkaline phosphatase-conjugated reagents (anti-human polyvalent (α, γ and μ chain specific), anti-human IgG (γ chain specific) and anti-human IgM (μ chain specific)) from Sigma Chemical Company (St. Louis, Mo., U.S.A.) were each diluted 1/500 in 1% BSA/PBS. One hundred μl of this mixture was added to each well. After 2 hours, wells were washed four times with PBS, then 100 μl/well of 1.0 mg of p-nitrophenyl phosphate/ml of 1 M diethanolamine-HCl (pH 9.8) containing 19% BSA and 500 μM MgCl2 was added. After 1 hour, optical densities at 405 nm (O.D.) were measured using a Microplate Autoreader (Model EL 309, BIO-TEK Instruments, Winooski, Vt., U.S.A.). The O.D. results for BSA-coated wells were subtracted from the results for the glycoconjugate-BSA-coated wells for each preparation. The assays were performed in duplicate.

[2] = tested on: Human Anti-Pig Heart antibodies; assay: ELISA: human antibodies eluted from pig heart binding to carbohydrate-BSA antigens; conditions: for Optical Density (405 nm): BSA well O.D. subtracted; for O.D. readings: most of the human anti-pig heart preparations
Procedure: as §1

[3] = tested on: human antibodies eluted from pig heart, pig kidney and/or pig red cell stroma; assay: ELISA: human anti-pig antibody preparations overall binding to carbohydrate antigens
Procedure: Organs from two populations of pigs were used to purify human anti-pig antibodies. The pig strains were Poland China and Yorkshire. Antibody preparations were obtained by perfusing 100-200 ml of human plasma (O or AB) through pig hearts, pig kidneys or through a column containing solid support coated with pig red cell stroma. After washing the tissues thoroughly with 0.15 M NaCl, the retained antibodies were eluted from the tissue or column using 200 ml of 3M NaSCN. The antibodies were concentrated, and then the protein content determined. Carbohydrate antigens were made by covalent binding of the synthetic oligosaccharides with an aliphatic linking arm (CH2)8COOCH3 to BSA as described by Pinto and Bundle (1983)^19 and/or Lemieux, Bundle, Baker (U.S. Pat. No. 4,137,401)^13 (ten to twenty haptens per molecule of BSA). Example 5, infra, describes this procedure as applied to carbohydrate 2 of FIG. 1A. Structures and trivial names of some of the monosaccharides and oligosaccharides used are included in FIGS. 1A to 1H. The use of synthetic carbohydrate structures to detect antibody binding has been previously described in U.S. Pat. No. 4,137,401^13. […] After 1 hour, optical densities at 405 nm (O.D.) were measured using a Microplate Autoreader (Model EL 309, BIO-TEK Instruments, Winooski, Vt., U.S.A.). […]

[4] = tested on: pig kidney cell line (LLC-PK1); assay: Chromium release assay, plasma incubated with soluble carbohydrate haptens; format: cell-based; conditions: heat inactivated human plasma (O and A), 1 ml incubated overnight at 4° C. with 0.215 g hapten; FIGS. 8A and 8B
Procedure: Undiluted heat-inactivated plasma (100 μl) was incubated with 100 μl of chromium-labelled target cells (2×10^4 cells) in 96 well V bottom microtiter plates (Dynatech Lab., Chantilly, Va., U.S.A.: Cat.# 1-220-25X) at 37° C. for 1 hour with shaking (20 rpm). A 1/15 dilution of rabbit complement (LOWTOX-M from Cedarlane Laboratories Ltd., Hornby, Ontario, Canada: Cat.# CL3051) was added to each well. The plate was again incubated for 1 hour at 37° C. with shaking. Plates were then spun at 1000 rpm and supernatants were counted for chromium content in the Beckman gamma 4000 counter (Beckman Instruments, Inc., Fullerton, Calif., U.S.A.). Spontaneous and total release controls were also run. Spontaneous counts were always less than 5% of the total counts, and typical total counts of cells ranged from 10,000 to 20,000 cpm.
This procedure was done to investigate the potential for inhibiting human preformed cytotoxic antibodies with carbohydrate(s) haptens. […] The chromium release assay was then performed with treated and untreated plasma; the pig kidney cell line (LLC-PK1) was used as the target cell.

[5] = Human Anti-Pig Kidney preparation 5 A°, human O plasma adsorbed onto tissue
[6] = Human Anti-Pig Kidney preparation 5 B^AB, human AB plasma adsorbed onto tissue
[7] = Human Anti-Pig Kidney preparation 6 A°, human O plasma
[8] = Human Anti-Pig Kidney preparation 6 B^AB, human AB plasma
[9] = Human Anti-Pig Kidney preparation 7 A^AB, human AB plasma
[10] = Human Anti-Pig Kidney preparation 7 B°, human O plasma
[11] = Human Anti-Pig Kidney preparation 8 A°, human O plasma, pig of A-phenotype
[12] = Human Anti-Pig Kidney preparation 9 B^AB, human AB plasma
[13] = Human Anti-Pig Heart preparation 5^AB, human AB plasma
[14] = Human Anti-Pig Heart preparation 6°, human O plasma
[15] = Human Anti-Pig Heart preparation 7^AB, human AB plasma
[16] = Human Anti-Pig Heart preparation 9°, human O plasma

| Molecule | Optical Density (405 nm) [1, 5] | Optical Density (405 nm) [1, 6] | Optical Density (405 nm) [1, 7] | Optical Density (405 nm) [1, 8] | Optical Density (405 nm) [1, 9] | Optical Density (405 nm) [1, 10] | Optical Density (405 nm) [1, 11] | Optical Density (405 nm) [1, 12] | Optical Density (405 nm) [2, 13] | Optical Density (405 nm) [2, 14] | Optical Density (405 nm) [2, 15] | Optical Density (405 nm) [2, 16] | O.D. readings [2] | antibodies to the carbohydrate present in eluted antibody preparations ([3]; every preparation of antibodies tested (Table 1)) | reactivity in ELISA ([3]; majority of samples tested, including anti-pig heart and anti-pig kidney) | cytotoxic effect of antibodies to the pig cell line [4] |
| --- | --- | --- | --- | --- | --- | --- | --- | --- | --- | --- | --- | --- | --- | --- | --- | --- |
| CC(=O)N[C@H]1[C@H](O[C@@H]2[C@H](O)[C@@H](O)[C@H](C)O[C@H]2O)O[C@H](CO)[C@@H](O)[C@@H]1O[C@@H]1O[C@@H](C)[C@H](O)[C@@H](O)[C@H]1O [formula 32, α-L-Rha(1-3)βGlcNAc(1-2)α-L-Rha] | 1.4 | 0.8 | 0.1 | 0.3 | 1.9 | 0.8 | 0.1 | 0.1 | 1.0 | 0.3 | 1.6 | 1.1 | some of the highest readings | – | – | – |
| CC(=O)N[C@@H]1[C@@H](O)[C@H](O[C@@H]2O[C@H](CO)[C@@H](O)[C@H](O)[C@H]2NC(C)=O)[C@@H](CO)O[C@H]1O [formula 26, βGlcNAc(1-4)βGlcNAc] | 0.4 | 0.3 | 0.2 | 0.4 | 0.9 | 0.1 | 0.0 | 0.1 | 0.5 | 0.2 | >2.0 | 1.7 | some of the highest readings | – | – | – |
| (αGal(1-3)βGal(1-4)βGlc-O—(CH2)8CONH)17-BSA [formula 2] | 1.9 | 1.3 | >2.0 | >2.0 | 0.8 | 1.8 | 1.2 | >2.0 | 1.0 | 0.3 | 1.2 | 0.8 | – | present in every preparation | most reactivity | – |
| C[C@@H]1O[C@@H](O)[C@H](O)[C@H](O)[C@H]1O [formula 31, α-L-Rhamnose] | 0.2 | 0.0 | 0.3 | 0.5 | 1.7 | 0.1 | 0.0 | 0.1 | 0.7 | 0.4 | >2.0 | 0.6 | some of the highest readings | – | – | – |
| C[C@@H]1O[C@@H](O[C@H]2C(O)O[C@H](CO)[C@H](O)[C@@H]2O[C@H]2O[C@H](CO)[C@H](O)[C@H](O)[C@H]2O)[C@@H](O)[C@H](O)[C@@H]1O (stereo partly shown) [B trisaccharide] | – | – | – | – | – | – | – | – | – | – | – | – | – | – | – | partially inhibited |
| N-acetyl-β-D-Glucosaminide [formula 25] | 0.5 | 0.7 | 0.4 | 1.0 | 1.1 | 0.5 | 0.1 | 0.1 | 2.0 | 0.4 | >2.0 | 1.5 | some of the highest readings | – | – | – |
